These results are taken from a melting point compilation (Tetko et al.; mined from patent text by program, amines drawn as free bases though some values may be those of a salt).

For orientation: melting point means the temperature, or range, at which the solid turns liquid.

`CNC(=O)c1ccccc1Nc1nc(Nc2ccc3c(c2)CCN(C[C@@H](O)C(F)(F)F)CC3)ncc1Cl` registered a melting point of 188 to 191 °C.

For the compound `Cn1c(C2CC2)nc2c(O[C@@H]3c4ccccc4C[C@H]3O)cc(C(=O)O)cc21` (relative stereo), the melting point is 132 to 134 °C. With `CCOC(=O)/C(C)=C(/C)c1cn(C(c2ccccc2)(c2ccccc2)c2ccccc2)cn1`, the melting point was 166 to 168 °C. The result for `Cc1ccc(COc2ncc(F)c(N)n2)cc1` reads 111 to 112 °C; that for `CCc1ccc2[nH]c3cnn(C)c3c(=O)c2c1`, 266 °C; that for `Oc1c(C(O)C(F)(F)F)cnc2c(-c3cc(-c4ccccc4)cs3)cnn12` (stereo not drawn), 265 to 290 °C.

Consider `O=C(O)CCCCCCCCCCc1ccc(Cl)cc1`, for which the melting point was found to be 93 °C. `CCCCCCCCNC(=O)N1CCC(Oc2ccc(CCNC[C@H](O)COc3ccc(O)cc3)cc2)CC1` returned a melting point of 79 to 81 °C. `CC(C)(C(=O)O)C1(c2ccc(Cl)cc2)CCC1`: the melting point fell in the range of 95 to 110 °C. In turn, `N#CSc1c(-c2ncon2)nn(-c2c(Cl)cc(C(F)(F)F)cc2Cl)c1N` registered a melting point of 195 to 198 °C. In the case of `CCOCCn1c(NC2CCN(CC(=O)O)CC2)nc2cccnc21`, the melting point amounted to 227 °C. With `COc1cc2c(cc1OC)C(=O)C(=CC=Cc1ccc(N(C)C)cc1)C2`, the melting point fell in the range of 210 to 213 °C. As to `O=C(NC(Cc1ccc(OCc2ccc(F)cc2)cc1)C(=O)O)c1cn2ccc(-c3ccc(Cl)cc3)cc2n1` (stereo not drawn), the melting point lay in the range of 255 to 257 °C.

In turn, `O=C1c2ccccc2C2(O)Oc3c(ccc(Cl)c3Cl)C12O` (stereo not drawn) returned a melting point of 142 to 150 °C.

`Nc1nc(N)nc(N2CCC3(CC2)OCCO3)n1` yielded a melting point of 209 to 211 °C. The result for `CC(C)Oc1ccc(C(=O)n2nc(Nc3ccc(O)cc3)nc2N)cc1` reads 229 to 234 °C; that for `OCc1cccc(/C=C/c2nc3cc(F)ccc3s2)n1`, 179 to 181 °C; that for `Cc1nnc2n1-c1ccc(C#CCC3C(=O)Nc4ccccc43)cc1C(c1ccccc1Cl)=NC2` (stereo not drawn), 141 to 143 °C. For `CCC(CC)n1nc(-c2ccc(O)cc2O)c2cccc(C(F)(F)F)c21`, the melting point lay in the range of 121 to 122 °C.

In turn, `c1cc(-c2cnc(-c3cccc(-c4cnco4)n3)o2)cc(-c2cnc(-c3cccc(-c4cnco4)n3)o2)c1` displayed a melting point above 250 °C. `CCCn1c(Cl)nc2ccc(I)cc2c1=O` displayed a melting point of 98 to 100 °C. The value for `CCCC(=O)c1ccc(=O)[nH]c1CCC` was 86 to 88 °C; that for `CNC(=O)Nc1snc(N(C)C)c1C(N)=O` was 221 °C; that for `CCn1nc2c(N)nc3ccccc3c2c1CCS(C)(=O)=O` was 220 to 222 °C. The compound `Cc1c(NC(=O)CC(C)(C)C)cc2c(c1C)OC(C)(C)C2(O)c1cccc(C=O)c1` (stereo not drawn) gave a melting point of 189 to 190 °C. The compound `CN(C)C1CC=C(c2c[nH]c3ccc(N)cc23)CC1` (stereo not drawn) displayed a melting point of 63 to 65 °C. The compound `O=C(CBr)C(O)(c1ccccc1)C1CCC1` (stereo not drawn) displayed a melting point of 79 to 80 °C.

`COc1ccc(-c2nc(-c3[nH]cc(C)c3C)[nH]c2-c2ccc(OC)cc2)cc1`: the melting point was found to be 134 °C.

Compound `COc1ccc(N(CCC(O)CO)S(=O)(=O)c2c(F)c(F)c(F)c(F)c2F)cc1` (stereo not drawn) returned a melting point of 126 to 128 °C. The result for `CCOC(=O)CN1CCN(CCNc2ncc3ncnc(Nc4ccc(F)c(Cl)c4)c3n2)CC1` reads 128 to 129 °C; that for `CS(=O)(=O)N1CCN([C@@H](CNC(=O)c2ccc(OCc3ccncc3)cc2)C(=O)NO)CC1`, 213 °C; that for `O=C(Nc1ccc(C(=O)N2Cc3ccccc3Cc3ccccc32)cc1)c1cccc(C(F)(F)F)c1`, 190 to 191 °C. `CC(C)c1nc(-c2ccc(F)cc2)c(C=O)c(C(C)C)c1CO`: the melting point came to 147 °C.

`COc1cc(C(C)=O)ccc1OCCCN1C2CCC1CC(c1n[nH]c3ccccc13)C2` (stereo not drawn) gave a melting point of 173 to 175 °C. The compound `O=C(NCCCc1ccncc1)N(CCCC12CC3CC(CC(C3)C1)C2)CC(F)(F)F` gave a melting point of 88.9 to 90 °C. Consider `CC(C)c1cc2n(Cc3ccccc3)cc(C(=O)O)c(=O)n2n1`, for which the melting point was 180 to 185 °C. The value for `O=C(OC1CCCCC1)C1=C(c2ccccc2)C(c2ccccc2)OC1=O` (stereo not drawn) was 139 to 142 °C; that for `CCOC(=O)c1ccc(OCCCCCCCCCCCCCCCOc2ccc(Cl)cc2)cc1` was 84 to 85 °C. The value for `COc1cccc2c1CCCC2=NNc1nc(-c2ccc(Cl)cc2Cl)cs1` was 200 °C. As to `CCOC(=O)c1cc(S(N)(=O)=O)c(Cl)cc1NCc1ccco1`, the melting point is 163 to 165 °C. In turn, `CNc1ccc([N+](=O)[O-])c(C(=O)NCC2CCN(C(c3ccccc3)c3ccccc3)CC2)c1` yielded a melting point of 185 °C. Take `CCCCCS(=O)(=O)NC(=O)/C=C/c1ccc(OCCOC)cc1Oc1ncc(NC(=O)OC(C)(C)C)cc1C`: the melting point is 150 °C. The result for `O=C1Nc2ccc(Cl)cc2C1CC1CCCCC1` (stereo not drawn) reads 152 to 153 °C. The value for `COc1cc(Br)cc2c1OCCC2` was 67 °C. Turning to `CCOc1c(C)cc([N+](=O)[O-])cc1C`, the melting point came out at 56 °C. The compound `O=Cc1c2n(c3cc4c(cc13)OCO4)CCC2` yielded a melting point of 169 to 170 °C. The compound `CSc1ncc(C)c(=O)[nH]1` came in with a melting point of 238 to 239 °C. For the compound `CC(O)(C(=O)Nc1ccc(S(=O)(=O)c2ccccc2)cc1)C(F)(F)F` (stereo not drawn), the melting point was 164 to 166 °C. The result for `O=C(N[C@H](Cc1ccc(C(F)(F)F)cc1)[C@@H](O)c1ccc(F)cc1)c1ccc2ccccc2c1` (racemic) reads 174 to 175 °C; that for `CCOC(=O)c1cnn2c(-c3cccc(N(CC)C(=O)OC)c3)ccnc12`, 117 °C; that for `Cc1c(C(N)=O)nc2c(=O)[nH]c3cc(C(F)(F)F)ccc3n12`, above 250 °C. Regarding `CN(Cc1cc2c(=O)c(C(=O)NCc3ccc(Cl)cc3)cn(C)c2s1)CC(O)c1ccccc1` (stereo not drawn), the melting point lay in the range of 162 to 164 °C. The result for `CCOCc1nc2c(N)nc3cc(CCC(=O)N4CCOCC4)ccc3c2n1CC(C)(C)O` reads 118 to 119 °C; that for `COc1ccc2[nH]c3c([N+](=O)[O-])ccc(Cl)c3c(=O)c2c1`, 262 to 264 °C; that for `O=C1CCC(N2C(=O)c3ccc(CNC(=O)c4ccccn4)cc3C2=O)C(=O)N1` (stereo not drawn), 212 to 214 °C. The value for `Cc1cc(CO)c2c(N)c(C(N)=O)sc2n1` was above 210 °C; that for `Clc1ccc2c(c1)C(c1ccccn1)=NCc1ccccc1-2` was 153 to 155 °C. For `CCOc1cc(-c2cc(C(F)(F)F)n3ncc(C(=O)Nc4cccc(S(=O)(=O)NC(C)(C)CO)c4)c3n2)ccc1C(F)(F)F`, the melting point is 268 °C.

With `CCCCc1nc(C(=O)c2ccccc2)c(C#N)[nH]1`, the melting point was 121 to 122 °C. Regarding `CCCCCCCCc1cc2c(cc1C(C)=O)C(C)(C)CCS2(=O)=O`, the melting point was in the range of 77 to 78 °C.

Take `COc1ccc2cc(S(=O)(=O)Cl)cc(OC)c2c1`: the melting point stood at 134 °C. In turn, `CCOC(=O)C1CNc2cc(NS(C)(=O)=O)ccc2O1` (stereo not drawn) came in with a melting point of 149 to 151 °C. `CCc1noc(-c2cc3c4cc(N(C)C)ccc4n(CCCCl)c3cn2)n1` showed a melting point of 183 to 186 °C. The result for `CCn1c(=O)c2c(nc(C=Cc3ccc(C(=O)O)cc3OC)n2C)n(CC)c1=O` reads above 280 °C; that for `CCOC(=O)c1nnc(-c2cc3sc(C)c(N(C)S(=O)(=O)c4cccs4)c3[nH]2)s1`, 209 °C; that for `CCOC(=O)C(=O)c1cn(-c2ccccc2)c2ccccc12`, 109 to 110 °C. On to `Cc1cc(Oc2ccc([N+](=O)[O-])cc2)c2ncccc2c1`, for which the melting point is 143 °C.

`Cc1cc(SCc2ccc(OC3CCc4cc(Cl)ccc43)cc2)ccc1OCC(=O)O` (stereo not drawn) gave a melting point of 130 to 131 °C.

`CC(O)c1sccc1S(=O)(=O)N(C)c1cccc2cc(-c3nccs3)[nH]c12` (stereo not drawn) returned a melting point of 193 °C. The compound `CCOC(=O)C(=CNc1ccc(F)c(F)c1OCC(C)O)C(=O)OCC` (stereo not drawn) had a melting point of 52 to 55 °C.

With `CCN(CC)C(=O)Nc1cc(C(C)(C)C)on1`, the melting point is 122 to 124 °C. Compound `CC(C)(C)OC(=O)Nc1cc(N)cc(Cl)c1` came in with a melting point of 85 to 87 °C.

In turn, `COC(=O)COc1ccc(C(=O)NN(C)C(=O)OC(C)(C)C)cc1` had a melting point of 158 to 159 °C.

Consider `CC1CC(=O)NN=C1c1ccc(N=Cc2ccccc2O)cc1` (stereo not drawn), for which the melting point was 207 to 209 °C. With `CC(=O)OC[C@H]1OC(O)[C@H](OC(C)=O)[C@@H](F)[C@@H]1OC(C)=O` (stereo partly drawn), the melting point fell in the range of 115 to 120 °C. The compound `COc1ccc(-c2snnc2-c2ccccc2)cc1` displayed a melting point of 56.5 to 58 °C. On to `CSc1nc(C)n(-c2ccc(N)cc2)n1`, for which the melting point was in the range of 130 to 136 °C. The compound `CCC1c2cccn2-c2ccc(F)cc2N1S(=O)(=O)c1ccc(O)cc1` (stereo not drawn) yielded a melting point of 150 to 152 °C. The value for `CC(=O)N1CCSc2cccc(C)c2C1` was 71 to 73 °C. For the compound `CCOC(=O)C1=C(C2CC2)Nc2n[nH]cc2C1c1ccccc1Br` (stereo not drawn), the melting point lay in the range of 168 to 170 °C. The value for `CC(C)c1cccc(C(C)C)c1NC(=O)N(Cc1ccccc1)CC(c1ccccc1)c1ccccc1` was 153 to 155 °C; that for `CC(C)(COC(=O)c1ccccc1)c1cc(OS(C)(=O)=O)ccc1OC(=O)c1ccccc1` was 100 to 101 °C. The value for `COc1ccc(N2CCN(c3c(C)c(C)c4c(c3C)C(c3ccc(-c5ccccc5)cc3)C(C)(C)O4)CC2)cc1` (stereo not drawn) was 147 to 148 °C.

Consider `CN1c2ccc(C=C(c3ccccc3)c3ccccc3)cc2S(=O)(=O)c2cc(C=C(c3ccccc3)c3ccccc3)ccc21`, for which the melting point is 246 to 252 °C. Turning to `COc1cc(C(=O)c2ccccc2)cc([N+](=O)[O-])c1OC`, the melting point lay in the range of 78 to 80 °C. The compound `CCn1nnnc1Cc1ccc(NC(=O)/C=C/c2cnn(C)c2-c2ccc(F)cc2)cc1` showed a melting point of 206 to 207 °C.

The compound `O=C(O)CSCCCCc1cccc2cncn12` yielded a melting point of 124 to 126 °C. Take `Cc1cc(N2N=CCNC2=O)cc(Cl)c1C(C#N)c1cnc(Cl)s1` (stereo not drawn): the melting point was 238 to 239 °C.
